Laboratory results published in paper PMC4855137, “Raffinose, a plant galactoside, inhibits Pseudomonas aeruginosa biofilm formation via binding to LecA and decreasing cellular cyclic diguanylate levels” (Scientific Reports, 2016).

Tests used:
LecA (PA-IL) [1] = molecular target: T1, LecA (PA-IL) (Pseudomonas aeruginosa, UniProt Q05097); assay: isothermal titration calorimetry; CPMG NMR competition with raffinose; assay type: binding
LecA (PA-IL) [2] = molecular target: T1, LecA (PA-IL); assay: isothermal titration calorimetry; 1D relaxation-edited (CPMG) NMR with galactose competition; assay type: binding

T1 sequence (Q05097 2-122): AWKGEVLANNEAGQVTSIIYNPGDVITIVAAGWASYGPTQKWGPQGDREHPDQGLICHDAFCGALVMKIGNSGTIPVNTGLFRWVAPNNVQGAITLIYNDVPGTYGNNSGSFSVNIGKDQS

Row | Compound | Kd (LecA (PA-IL) [1]) [µM] | Kd (LecA (PA-IL) [2]) [µM]
1 | OC[C@H]1OC(O)[C@H](O)[C@@H](O)[C@H]1O (stereo partly drawn) [D-galactose] | 47 | –
2 | OC[C@H]1O[C@H](OC[C@H]2O[C@H](O[C@]3(CO)O[C@H](CO)[C@@H](O)[C@@H]3O)[C@H](O)[C@@H](O)[C@@H]2O)[C@H](O)[C@@H](O)[C@H]1O [raffinose] | – | 32
